Results: patent US20250250229A1, “ARYLTHIO DERIVATIVES WITH PHARMACOLOGICAL ACTIVITY” (IRIDEA S.R.L., priority 2022, published 2025)

Tests used:
[1] = test system: chorioallantoic membrane (CAM); experiment: In vivo assay on chorioallantoic membrane (CAM), VEGF165-induced neovascularisation; set-up: species or system hen; conditions: day 14, VEGF165 alone = 100
Procedure: In Vivo Assays on Chorioallantoic Membrane (CAM)
42 fertilised hens' eggs were disinfected with a 20% ethanol solution and incubated at a temperature of 37-38° C. and a humidity of 40-60% in a rotary egg incubator. The eggs were positioned horizontally and incubated for the next 11 days to promote embryo development.
On day 11, the position of the CAM was identified by candling for 36 eggs, the air chamber was removed, and slits made in the shell in order to position sterile paper filters saturated with the effectors at different concentrations (V=2.5 uL) on the CAM. On day 14, CAMs were photographed with a stereomicroscope (Carl Zeiss Vision GmbH). Quantitative analysis was conducted (count of vessels leading from the filter) by skeletonizing the images and using AngioTool64 0.6a software, and the percentage of neovascularisation at the various concentrations of effectors was determined (Table 2).

[2] = test system: neutrophil and macrophage recruitment; experiment: In vivo anti-inflammatory activity test, P. aeruginosa RP73 lung infection, BALF cell analysis; set-up: species or system C57Bl/6N mice; conditions: 12 mg/kg subcutaneous daily, BALF six days after infection, compared with carrier only
Procedure: In Vivo Anti-Inflammatory Activity Test Immunocompetent C57Bl/6N male mice (8-10 weeks) were infected with strains of P. aeruginosa RP73 (4-6×10^5 CFU, Colony Forming Units), incorporated in agar microbeads. The microbeads were prepared by following the procedures described in the literature (Bayes H K, Ritchie N, Irvine S, Evans T J. A murine model of early Pseudomonas aeruginosa lung disease with transition to chronic infection. Sci Rep. 2016 Nov. 2; 6:35838. doi: 10.1038/srep35838), and they were administered to the mice by intratracheal injection. Subcutaneous administration of the compounds according to the invention at the concentration of 12 mg/kg, or of the carrier, was conducted on the mice 18 hours before inoculation of the bacterium, and repeated daily for 6 days. The general state of health of the mice was analysed once or twice a day throughout the duration of the experiment. Six days after infection, the mice were euthanised by carbon dioxide inhalation. Bronchoalveolar lavage fluid analysis (BALF) indicated a significant reduction in the number of neutrophils in the treated mice compared with those treated with the carrier only.

rat aorta rings = experiment: Ex vivo assay of anti-angiogenic activity on rat aorta rings (VEGF-induced sprouting); assay type: cell-based; conditions: VEGF 30 ng/mL, compound 100 μM, counted after 6 days' incubation; VEGF alone 17 ± 4
Procedure: Ex Vivo Assays of Anti-Angiogenic Activity on Rat Aorta Rings
Thoracic aortas obtained from 5- to 10-week-old male rats were cut into rings measuring about 1 mm. The rings were placed on the base of a 24-well plate (positioning the luminal axis parallel to the base of the well), and incubated with a fibrin-polymerising solution. After 5 min, VEGF (30 ng/mL) was added to the wells in an appropriate culture medium in the presence or absence of the compounds according to the invention at the concentration of 100 μM. The medium was changed three times a week as from day 3. The angiogenic response was measured by counting the number of new vessels that sprouted over time (Table 1). The endothelial filaments were counted after 6 days' incubation.

[3] = VEGF165 0.1 ug + compound 0.0001 ug on filter
[4] = VEGF165 0.1 ug + compound 0.001 ug on filter
[5] = VEGF165 0.1 ug + compound 0.01 ug on filter
[6] = VEGF165 0.1 ug + compound 0.1 ug on filter
[7] = VEGF165 0.1 ug + compound 1 ug on filter

Molecule | Vascularisation (%) [1, 3] [%] | Vascularisation (%) [1, 4] [%] | Vascularisation (%) [1, 5] [%] | Vascularisation (%) [1, 6] [%] | Vascularisation (%) [1, 7] [%] | Macrophages (%) [2] [%] | Neutrophils (%) [2] [%] | Total cells (%) [2] [%] | Endothelial filaments (standardised for the number of rings) (rat aorta rings)
CC(C)(C)c1cc(NC(=O)CCN=C(N)N)c(SCCc2ccccc2)c(NC(=O)CCN=C(N)N)c1 [IRI-N-19001, N,N′-(5-(tert-butyl)-2-(phenethylthio)-1,3-phenylene)bis(3-((diaminomethylene)amino)propanamide)] | 45 | 37 | 33 | 26 | 10 | −10 ± 3 | −61 ± 5 | −55 ± 12 | 1.0 ± 0.4
CC(C)(C)c1cc(NC(=O)CCN=C(N)N)c(SCc2ccc3ccccc3c2)c(NC(=O)CCN=C(N)N)c1 [IRI-N-19004, N,N′-(5-(tert-butyl)-2-((naphthalen-2-ylmethyl)thio)-1,3-phenylene)bis(3-((diaminomethylene)amino)propanamide)] | 38 | 33 | 24 | 19 | 8 | −5 ± 4 | −58 ± 8 | −56 ± 8 | 1.2 ± 0.5
CC(C)(C)c1cc(NC(=O)CCCN=C(N)N)c(SCCc2ccccc2)c(NC(=O)CCCN=C(N)N)c1 [IRI-N-19025, N,N′-(5-(tert-butyl)-2-(phenethylthio)-1,3-phenylene)bis(4-((diaminomethylene)amino)butanamide)] |  |  |  |  |  | −8 ± 5 | −55 ± 9 | −50 ± 10 | 1.9 ± 1.1
N,N′-(2-(benzylthio)-5-(tert-butyl)-1,3-(phenylene)bis(3-((diaminomethylene)amino) propanamide) [IRI-N-19002] | 48 | 42 | 36 | 31 | 13 | −9 ± 4 | −60 ± 6 | −54 ± 9 | 1.4 ± 0.5
